According to US6423689B1, “Peptidyl calcium channel blockers” (Warner-Lambert Company, priority 1997, dated 2002):
Blank lines part the entries; values can stand above or below the compound they belong to.

Assays:
[1] = molecular target: T1, N-type Ca2+ channels in superior cervical ganglion (SCG) neurons (Rattus norvegicus, UniProt Q02294); test: Whole-cell voltage clamp, N-type Ca2+ current in SCG neurons; assay type: cell-based
T1 construct: from tissue
Description: (§1) Electrophysiological techniques were used to measure the effects of experimental compounds on voltage-gated Ca^2+, Na^+ and K^+ channels. […] Sodium and potassium channel currents were measured from acutely dissociated SCG neurons.
(§2) Dissociation of the neurons from the ganglia was accomplished using a 30 to 45 minute treatment in 0.25% trypsin, similar to methods outlined in Higgins, et al. [see Higgins D., et al. “Tissue culture of mammalian autonomic neurons.” In Banker G. and Goslin K. (Eds), Culturing Nerve Cells, Cambridge, Mass., MIT Press (1991)].
(§3) Ca^2+, Na^+ and K^+ channel currents in SCG neurons were measured using conventional single electrode whole-cell voltage-clamp techniques, outlined in Hamill, et al., (see Hamill O.P., et al. “Improved patch-clamp techniques for high resolution current recordings from cells and cell-free membrane patches”. Pflugers Arch. 1981;391:85-100) For Ca^2+ channel experiments, the external bathing solution contained tetraethylammonium chloride (100 mM), choline chloride (52 mM), NaCl (15 mM), HEPES (10 mM), glucose (5.6 mM), CaCl2 (2 mM), and MgCl2 (0.8 mM) pH 7.35 with KOH; with the internal pipette solution containing cesium methane sulfonate (140 mM), EGTA (10 mM), and HEPES (10 mM), supplemented with 5 mM Mg^2+ -ATP on the day of the experiment, pH 7.4 with CsOH. For Na^+ and K^+ channel experiments, the external bathing solution contained NaCl (150 mM), KCl (5 mM), MgCl2 (1.1 mM), CaCl2 (2.6 mM), Na-HEPES (10 mM), and glucose (10 mM), pH 7.4; with the internal pipette solution containing KCl (80 mM), K-gluconate (50 mM), HEPES (10 mM), and EGTA (10 mM), pH 7.4 with KOH. Experimental compounds were diluted into the external solution and applied to the soma of cells by local perfusion from large diameter (20-50 μm) glass micropipettes or from a U-tube applicator.
After obtaining a whole-cell recording, Ca^2+ channels were elicited by stepping to test potentials between −40 and +20 mV for 120 msec from the holding potential of −90 mV to determine if the amplitude of the current and clamp control were adequate for evaluation of drug effects. Ca^2+ channel currents were evoked by stepping from a holding potentials between −65 mV and −−55 mV to a test potential of +20 mV for 150 msec every 40 seconds. The amplitude of the Ca^2+ channel currents were compared before and during drug application and drug effects expressed as percent inhibition of the amplitude of control currents.

[2] = molecular target: T2, N-type Ca2+ channels in IMR-32 cells (Homo sapiens, UniProt Q00975); test: Inhibition of N-type calcium flux in IMR-32 cells (Indo-1 fluorescence, nitrendipine present); assay type: cell-based; details: for IC50: IMR-32 cells, 5 μM nitrendipine, K+ depolarization
T2 construct: host or cells: IMR-32 cells, differentiated with dibutyryl cAMP and bromodeoxyuridine
Procedure, shortened: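 Differentiated IMR-32 cells (7–13 days) were loaded with 5 μM Indo-1 AM, preincubated with compound for 10 min at 30° C, and depolarized with KCl/CaCl2 stimulation solution, with 5 μM nitrendipine blocking L-channels. Peak-minus-basal 400/490 nm emission ratio was plotted against drug concentration, and IC50 came from four-parameter logistic fits.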

[3] = test system: Na+ channels in superior cervical ganglion (SCG) neurons; test: Whole-cell voltage clamp, Na+ current in SCG neurons; assay type: cell-based, rat; details: 10 μM
Description: as §1, §2, §3
(§4) For Na^+ and K^+ channel currents, following the determination of the I/V relationship for each cell in control solution, currents were evoked from a holding potential between −65 and −55 mV by stepping every 10 sec to a test potential of either 0 mV for Na^+ or +50 mV for K^+ current for a duration of 35 msec. Peak inward current was measured for Na^+ and sustained current for K^+ channel currents. […] Test compounds were applied until steady-state block was achieved. Data were expressed as percent inhibition of control amplitudes for Na^+ and K^+ channel currents.

[4] = test system: K+ channels in superior cervical ganglion (SCG) neurons; test: Whole-cell voltage clamp, K+ current in SCG neurons; assay type: cell-based, rat; details: 10 μM
Description: as §1, §2, §3, §4

T2 sequence (Q00975 whole entry): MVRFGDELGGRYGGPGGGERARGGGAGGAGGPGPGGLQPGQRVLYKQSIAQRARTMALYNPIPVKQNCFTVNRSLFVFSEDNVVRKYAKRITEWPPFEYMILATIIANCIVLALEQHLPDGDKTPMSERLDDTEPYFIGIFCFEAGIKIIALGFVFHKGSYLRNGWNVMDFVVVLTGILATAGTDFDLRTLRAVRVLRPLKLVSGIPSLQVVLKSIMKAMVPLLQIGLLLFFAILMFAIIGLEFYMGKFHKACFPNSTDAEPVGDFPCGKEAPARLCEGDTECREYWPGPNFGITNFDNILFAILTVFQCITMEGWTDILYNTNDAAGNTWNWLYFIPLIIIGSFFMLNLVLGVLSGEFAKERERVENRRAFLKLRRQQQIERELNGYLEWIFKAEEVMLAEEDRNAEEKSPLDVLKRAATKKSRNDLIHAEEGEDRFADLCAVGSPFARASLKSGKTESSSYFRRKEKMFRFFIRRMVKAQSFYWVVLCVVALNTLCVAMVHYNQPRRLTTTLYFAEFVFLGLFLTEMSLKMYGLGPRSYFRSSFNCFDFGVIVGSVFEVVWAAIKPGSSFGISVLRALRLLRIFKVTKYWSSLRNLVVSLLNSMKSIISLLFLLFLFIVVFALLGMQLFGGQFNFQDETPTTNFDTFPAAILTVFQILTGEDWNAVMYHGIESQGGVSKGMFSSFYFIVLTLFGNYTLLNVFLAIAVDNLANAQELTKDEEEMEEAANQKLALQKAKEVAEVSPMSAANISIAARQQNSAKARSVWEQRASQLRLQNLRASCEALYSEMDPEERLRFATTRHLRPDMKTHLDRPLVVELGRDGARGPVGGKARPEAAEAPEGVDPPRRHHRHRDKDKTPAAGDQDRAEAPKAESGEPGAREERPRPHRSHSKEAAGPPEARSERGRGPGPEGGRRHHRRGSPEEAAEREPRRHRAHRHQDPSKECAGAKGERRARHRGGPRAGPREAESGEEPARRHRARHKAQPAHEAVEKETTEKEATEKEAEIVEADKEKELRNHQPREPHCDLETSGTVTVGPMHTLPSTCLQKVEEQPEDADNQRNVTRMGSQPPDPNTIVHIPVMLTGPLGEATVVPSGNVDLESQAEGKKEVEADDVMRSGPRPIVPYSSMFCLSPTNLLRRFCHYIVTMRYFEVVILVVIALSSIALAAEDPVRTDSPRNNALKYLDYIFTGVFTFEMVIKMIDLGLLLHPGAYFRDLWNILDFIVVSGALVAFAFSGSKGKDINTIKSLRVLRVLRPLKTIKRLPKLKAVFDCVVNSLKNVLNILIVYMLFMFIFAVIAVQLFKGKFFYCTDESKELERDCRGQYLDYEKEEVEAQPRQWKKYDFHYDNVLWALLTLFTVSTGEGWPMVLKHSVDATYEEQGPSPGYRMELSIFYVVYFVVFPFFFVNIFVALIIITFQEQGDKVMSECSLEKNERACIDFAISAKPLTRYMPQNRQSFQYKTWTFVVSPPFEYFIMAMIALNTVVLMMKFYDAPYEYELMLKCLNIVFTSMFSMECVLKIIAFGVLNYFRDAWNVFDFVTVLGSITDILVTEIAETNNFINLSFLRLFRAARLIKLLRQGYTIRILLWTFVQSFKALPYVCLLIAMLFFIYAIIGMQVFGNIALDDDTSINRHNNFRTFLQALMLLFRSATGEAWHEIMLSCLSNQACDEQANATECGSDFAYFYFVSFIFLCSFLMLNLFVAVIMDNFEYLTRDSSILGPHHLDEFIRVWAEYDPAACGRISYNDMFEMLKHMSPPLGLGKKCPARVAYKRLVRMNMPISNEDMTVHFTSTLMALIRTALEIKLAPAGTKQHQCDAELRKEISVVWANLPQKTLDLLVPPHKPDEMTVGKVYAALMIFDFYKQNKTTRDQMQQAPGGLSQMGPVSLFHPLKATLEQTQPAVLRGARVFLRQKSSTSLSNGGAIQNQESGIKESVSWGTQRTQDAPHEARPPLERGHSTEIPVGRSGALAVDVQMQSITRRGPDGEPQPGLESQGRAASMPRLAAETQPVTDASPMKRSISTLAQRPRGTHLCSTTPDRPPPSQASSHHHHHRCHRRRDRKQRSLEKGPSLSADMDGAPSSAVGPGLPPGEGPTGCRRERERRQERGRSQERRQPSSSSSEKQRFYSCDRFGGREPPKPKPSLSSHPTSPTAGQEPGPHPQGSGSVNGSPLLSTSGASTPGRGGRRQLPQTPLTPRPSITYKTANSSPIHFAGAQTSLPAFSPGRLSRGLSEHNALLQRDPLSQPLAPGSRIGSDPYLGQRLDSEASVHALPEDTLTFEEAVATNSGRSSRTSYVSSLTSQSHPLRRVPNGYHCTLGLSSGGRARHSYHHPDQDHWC
T2 sequence (P54289 25-956 partner limits assumed): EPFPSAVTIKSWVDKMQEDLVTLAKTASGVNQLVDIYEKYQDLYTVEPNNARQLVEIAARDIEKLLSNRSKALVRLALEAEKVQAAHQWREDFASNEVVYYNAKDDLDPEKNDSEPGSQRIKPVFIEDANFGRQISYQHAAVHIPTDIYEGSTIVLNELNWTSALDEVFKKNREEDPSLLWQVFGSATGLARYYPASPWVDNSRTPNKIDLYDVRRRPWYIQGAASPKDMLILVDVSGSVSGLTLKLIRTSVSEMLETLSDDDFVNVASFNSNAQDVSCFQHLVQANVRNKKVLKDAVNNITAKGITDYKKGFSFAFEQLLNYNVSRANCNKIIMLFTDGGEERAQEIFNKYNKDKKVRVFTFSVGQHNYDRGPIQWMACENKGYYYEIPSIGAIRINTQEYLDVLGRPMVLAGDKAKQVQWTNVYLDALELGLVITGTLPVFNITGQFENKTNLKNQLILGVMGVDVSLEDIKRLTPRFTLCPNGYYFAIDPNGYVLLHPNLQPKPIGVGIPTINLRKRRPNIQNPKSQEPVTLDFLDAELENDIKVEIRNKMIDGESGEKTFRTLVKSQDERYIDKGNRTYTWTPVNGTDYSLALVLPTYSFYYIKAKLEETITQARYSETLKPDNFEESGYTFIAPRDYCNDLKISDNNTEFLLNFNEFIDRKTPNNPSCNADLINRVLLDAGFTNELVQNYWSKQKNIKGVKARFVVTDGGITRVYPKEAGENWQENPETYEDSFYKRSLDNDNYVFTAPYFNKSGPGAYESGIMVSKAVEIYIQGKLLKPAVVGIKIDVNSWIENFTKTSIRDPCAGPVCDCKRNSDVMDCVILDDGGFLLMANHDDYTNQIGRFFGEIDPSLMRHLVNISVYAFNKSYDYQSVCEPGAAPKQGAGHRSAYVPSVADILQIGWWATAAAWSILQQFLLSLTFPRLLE
T2 sequence (P54289 957-1103 partner limits assumed): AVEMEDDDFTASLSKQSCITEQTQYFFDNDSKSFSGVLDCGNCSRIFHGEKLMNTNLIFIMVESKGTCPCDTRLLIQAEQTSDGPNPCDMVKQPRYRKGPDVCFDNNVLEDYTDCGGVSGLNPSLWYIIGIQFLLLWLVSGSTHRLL
T2 sequence (P54284 whole entry partner): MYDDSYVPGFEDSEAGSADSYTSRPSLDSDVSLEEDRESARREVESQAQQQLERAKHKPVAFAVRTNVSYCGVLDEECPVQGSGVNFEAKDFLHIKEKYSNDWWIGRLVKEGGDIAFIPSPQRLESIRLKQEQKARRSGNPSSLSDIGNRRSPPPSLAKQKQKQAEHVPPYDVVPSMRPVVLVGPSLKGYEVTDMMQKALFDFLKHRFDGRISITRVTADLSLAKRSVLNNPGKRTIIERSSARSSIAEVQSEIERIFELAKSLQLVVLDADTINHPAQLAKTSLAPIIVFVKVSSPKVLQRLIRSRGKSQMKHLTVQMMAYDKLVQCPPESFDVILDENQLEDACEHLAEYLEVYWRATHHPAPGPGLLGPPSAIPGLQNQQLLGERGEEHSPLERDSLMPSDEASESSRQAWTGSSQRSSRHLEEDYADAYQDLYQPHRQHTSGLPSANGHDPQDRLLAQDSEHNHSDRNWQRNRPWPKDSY

SMILES: CC(C)C[C@H](NC(=O)N1CCN(C)CC1)C(=O)N[C@@H](Cc1ccc(OCc2ccccc2)cc1)C(=O)OC(C)(C)C (relative stereo) [Example 9, [S-(R*,R*)]-3-(4-Benzyloxy-phenyl)-2-{4-methyl-2-[(4-methyl-piperazine-1-carbonyl)-amino]-pentanoylamino}-propionic acid tert-butyl ester]
Inhibition of N-type Ca2+ Current, % Inhibition at 10 μM ([1]; 10 μM): 81% | Inhibition of Calcium Flux in IMR-32 Cells % Inhibition at 1 μM [2]: 28% | Inhibition of Na+ Current, % Inhibition at 10 μM [3]: 44% | Inhibition of K+ Current, % Inhibition at 10 μM [4]: 61%

SMILES: CC(C)C[C@H](NC(=O)c1ccccc1)C(=O)N[C@@H](Cc1ccc(OCc2ccccc2)cc1)C(=O)OC(C)(C)C (relative stereo) [Example 130, [S-(R*,R*)]-2-(2-Benzoylamino-4-methyl-pentanoylamino)-3-(4-benzyloxy-phenyl)-propionic acid tert-butyl ester]
Inhibition of N-type Ca2+ Current, % Inhibition at 10 μM ([1]; 10 μM): −7% | Inhibition of Calcium Flux in IMR-32 Cells % Inhibition at 10 μM [2]: 78%

SMILES: CC(C)C[C@H](NC(=O)N1CCCCCC1)C(=O)N[C@@H](Cc1ccc(OCc2ccccc2)cc1)C(=O)N1CCCNCC1 [Example 259, [S-(R*,R*)]-Azepane-1-carboxylic acid {1-[2-(4-benzyloxy-phenyl)-1-(1,4]diazepane-1-carbonyl)-ethylcarbamoyl]-3-methyl-butyl}-amide]
IC50 [2]: 2.4 µM

SMILES: CC(C)C[C@H](NC(=O)N1CCCCCC1)C(=O)N[C@@H](Cc1ccc(OCc2ccccc2)cc1)C(=O)NCC1CCNCC1 [Example 262, [S-(R*,R*)]-Azepane-1-carboxylic acid (1-{-2-(4-benzyloxy-phenyl)-1-[(piperidin-4-ylmethyl)-carbamoyl]-ethylcarbamoyl]-3-methyl-butyl}-amide]
inhibition at 10 µM ([2]; IMR-32): 17% | IC50 [2]: 51 µM

SMILES: Cc1cc(NC(=O)[C@H](Cc2ccc(OCc3ccccc3)cc2)NC(=O)[C@H](CC(C)C)NC(=O)N2CCCCCC2)c(C)cc1O [Example 267, [S-(R*,R*)]-Azepane-1-carboxylic acid {1-[2-(4-benzyloxy-phenyl)-1-(4-hydroxy-2,5-dimethyl-phenylcarbamoyl)-ethylcarbamoyl]-3-methyl-butyl}-amide]
IC50 [2]: 4.4 µM

SMILES: CC(C)C[C@H](NC(=O)N1CCCCCC1)C(=O)N[C@@H](Cc1ccc(OCc2ccccc2)cc1)C(=O)NCCCN1CCCC1 [Example 268, [S-(R*,R*)]-Azepane-1-carboxylic acid {1-[2-(4-benzyloxy-phenyl)-1-(3-pyrrolidin-1-yl-propylcarbamoyl)-ethylcarbamoyl]-3-methyl-butyl}-amide]
IC50 [2]: 2.9 µM

SMILES: CC(C)C[C@H](NC(=O)N1CCCCCC1)C(=O)N[C@@H](Cc1ccc(OCc2ccccc2)cc1)C(=O)Nc1cccc(O)c1 [Example 269, [S-(R*,R*)]-Azepane-1-carboxylic acid {1-[2-(4-benzyloxy-phenyl)-1-(3-hydroxy-phenylcarbamoyl)-ethylcarbamoyl]-3-methyl-butyl}-amide]
IC50 [2]: 2.8 µM

Further lines, with some results ahead:

Inhibition of N-type Ca2+ Current, % Inhibition at 10 μM ([1]; 10 μM): 81% | IC50 ([1]; read-out: Inhibition of N-type Ca2+ Current IC50): 2.3 µM | Inhibition of Calcium Flux in IMR-32 Cells % Inhibition at 1 μM [2]: 44% | Inhibition of Calcium Flux in IMR-32 Cells % Inhibition at 10 μM [2]: 96% | IC50 [2]: 1.5 µM
SMILES: C[C@H](NC(=O)N1CCCCCC1)C(=O)N[C@@H](Cc1ccc(OCc2ccccc2)cc1)C(=O)OC(C)(C)C (relative stereo) [Example 7, [S-(R*,R*)]-2-{2-[(Azepane-1-carbonyl)-amino]-propionylamino}-3-(4-benzyloxy-phenyl)-propionic acid tert-butyl ester]
Inhibition of Na+ Current, % Inhibition at 10 μM [3]: 52% | Inhibition of K+ Current, % Inhibition at 10 μM [4]: 70%

Inhibition of Calcium Flux in IMR-32 Cells % Inhibition at 1 μM [2]: 61% | Inhibition of Calcium Flux in IMR-32 Cells % Inhibition at 10 μM [2]: 91% | IC50 [2]: 0.52 µM
SMILES: CC(C)C[C@H](NS(=O)(=O)c1ccc([N+](=O)[O-])cc1)C(=O)N[C@@H](Cc1ccc(OCc2ccccc2)cc1)C(=O)OC(C)(C)C (relative stereo) [Example 39, [S-(R*,R*)]-3-(4-Benzyloxy-phenyl)-2-[4-methyl-2-(4-nitro-benzenesulfonylamino)-pentanoylamino]-propionic acid tert-butyl ester]
Inhibition of Na+ Current, % Inhibition at 10 μM [3]: 28% | Inhibition of K+ Current, % Inhibition at 10 μM [4]: 22%

IC50 [2]: 1.4 µM
SMILES: CC(C)C[C@H](NC(=O)N1CCCCCC1)C(=O)N[C@@H](Cc1ccc(OCc2ccccc2)cc1)C(=O)NCCc1ccco1 [Example 174, [S-(R*,R*)]-Azepane-1-carboxylic acid {1-[2-(4-benzyloxy-phenyl)-1-(2-furan-2-ylethylcarbamoyl)-ethylcarbamoyl]-3-methyl-butyl}-amide]
Inhibition of Na+ Current, % Inhibition at 10 μM [3]: 14% | Inhibition of K+ Current, % Inhibition at 10 μM [4]: 32%

inhibition at 10 µM ([1]; 10 μM): 84% | IC50 [2]: 0.45 µM
SMILES: CC(C)C[C@H](NC(=O)N1CCCCCC1)C(=O)N[C@@H](Cc1ccc(OCc2ccccc2)cc1)C(=O)N[C@H]1CCN(Cc2ccccc2)C1 [Example 194, Azepane-1-carboxylic acid {(S)-1-[(S)-2-(4-benzyloxy-phenyl)-1-[1-benzyl-(S)-pyrrolidin-3-ylcarbamoyl]-ethylcarbamoyl]-3-methyl-butyl}-amide]

IC50 [2]: 1.2 µM
SMILES: CC(C)C[C@H](NC(=O)N1CCCCCC1)C(=O)N[C@@H](Cc1ccc(OCc2ccccc2)cc1)C(=O)NCc1ccccc1 [Example 263, [S-(R*,R*)]-Azepane-1-carboxylic acid {1-[1-benzylcarbamoyl-2-(4-benzyloxy-phenyl)-ethylcarbamoyl]-3-methyl-butyl}-amide]

IC50 [2]: 0.74 µM
SMILES: COc1ccc(N2CCN(C(=O)[C@H](Cc3ccc(OCc4ccccc4)cc3)NC(=O)[C@H](CC(C)C)NC(=O)N3CCCCCC3)CC2)cc1 [Example 264, [S-(R*,R*)]-Azepane-1-carboxylic acid (1-{1-(4-benzyloxy-benzyl)-2-[4-(4-methoxy-phenyl)-piperazin-1-yl]-2-oxo-ethylcarbamoyl}-3-methyl-butyl)-amide]

IC50 [2]: 1 µM
SMILES: CC(C)C[C@H](NC(=O)N1CCCCCC1)C(=O)N[C@@H](Cc1ccc(OCc2ccccc2)cc1)C(=O)N1CCC(Cc2ccccc2)CC1 [Example 265, [S-(R*,R*)]-Azepane-1-carboxylic acid {1-[1-(4-benzyloxy-benzyl)-2-(4-benzyl-piperidin-1-yl)-2-oxo-ethylcarbamoyl]-3-methyl-butyl}-amide]

IC50 [2]: 1.8 µM
SMILES: CC(C)C[C@H](NC(=O)N1CCCCCC1)C(=O)N[C@@H](Cc1ccc(OCc2ccccc2)cc1)C(=O)NC(C)(C)CO [Example 266, Azepane-1-carboxylic acid {(S)-1-[(S)-2-(4-benzyloxy-phenyl)-1-(2-hydroxy-1,1-dimethyl-ethylcarbamoyl)-ethylcarbamoyl]-3-methyl-butyl}-amide]

IC50 [2]: 1.2 µM
SMILES: CC(C)C[C@H](NC(=O)N1CCCCCC1)C(=O)N[C@@H](Cc1ccc(OCc2ccccc2)cc1)C(=O)N1CCN(C(c2ccccc2)c2ccccc2)CC1 [Example 270, [S-(R*,R*)]-Azepane-1-carboxylic acid {1-[2-(4-benzhydryl-piperazin-1-yl)-1-(4-benzyloxy-benzyl)-2-oxo-ethylcarbamoyl]-3-methyl-butyl}-amide]

inhibition at 1 µM ([2]; IMR-32): 70% | IC50 [2]: 0.84 µM
SMILES: CC(C)C[C@H](NC(=O)N1CCCCCC1)C(=O)N[C@@H](Cc1ccc(OCc2ccccc2)cc1)C(=O)NC1CCN(Cc2ccccc2)CC1 [Example 271, [S-(R*,R*)]-Azepane-1-carboxylic acid {1-[2-(4-benzyloxy-phenyl)-1-(1-benzyl-piperidin-4-ylcarbamoyl)-ethylcarbamoyl]-3-methyl-butyl}-amide]
